Measured values: publication PMC4155245, “Clostridium difficile has a single sortase, SrtB, that can be inhibited by small-molecule inhibitors” (BMC Microbiology, 2014)
Where two headings read alike, the source gives them in different places.

Molecular target: T1, SrtB (sortase B, CD630_27180) (Clostridioides difficile, UniProt Q183F3)
T1 construct: SrtBΔN26 (N-terminal transmembrane residues 2–25 replaced with a six-histidine tag)
Assay: FRET peptide cleavage assay (d-PVPPKTGDS-e) with purified recombinant SrtBΔN26
Format: biochemical

T1 sequence (Q183F3 entry or part of it): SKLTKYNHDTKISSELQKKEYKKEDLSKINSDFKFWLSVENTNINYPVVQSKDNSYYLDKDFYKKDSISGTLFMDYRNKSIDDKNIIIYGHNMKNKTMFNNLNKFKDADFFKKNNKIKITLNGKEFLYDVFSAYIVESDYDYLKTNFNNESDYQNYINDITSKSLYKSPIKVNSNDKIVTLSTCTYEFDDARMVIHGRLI

C[N+](C)(C)CCSS(C)(=O)=O [MTSET, 2-(trimethylamonium)ethylmethanethiosulfonate]
IC50: 287 ± 16.6 µM

LSHTM-0040 [LSHTM40]
IC50 (read-out: IC50): 63.1 ± 8.8 µM

LSHTM-0050 [LSHTM50]
IC50 (read-out: IC50): 60.1 ± 4.7 µM

LSHTM-0052 [LSHTM52]
IC50 (read-out: IC50): 44.1 ± 6.9 µM
